Assay results as given in US10399966B2, “Compounds for treatment of trypanosomes and neurological pathogens and uses thereof” (The University of North Carolina at Chapel Hill, priority 2016, dated 2019).
Like-named read-outs stand apart in the source and are kept apart here.

How the values were obtained:
[1] = Mouse oral pharmacokinetics; type: in vivo
Experimental: […] Experiments were performed with groups of three mice per compound. Plasma was separated and extracted with acetonitrile for measurements of compound concentrations by liquid chromatography/tandem mass spectrometry.

[2] = Distribution between mouse plasma and brain (brain penetration, ip); type: in vivo
In short: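 Mice (n=3) received a single 5 mg/kg ip dose in 7% Tween 80, 3% ethanol, 5% DMSO, 0.9% saline and were sacrificed 1 h post-dose. Plasma and acetonitrile brain homogenates analysed by LC/MS/MS; brain concentration corrected for 2.5% vasculature volume, assuming 1 g = 1 mL.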

Trypanosoma cruzi = test: Efficacy against T. cruzi in vitro; type: cell-based
[3] = Brain and plasma time-course after oral dosing; type: in vivo, mouse
Experimental: The brain and plasma concentrations of compound 1 were studied in a time-course experiment following oral dosing at 50 mg/kg (Table 15). […] At 24 h, the plasma concentrations are undetectable and brain levels are down to sub-micromolar concentrations. Compared to the previous experiment (Table 14), the BPR ratio for 1 is lower at 1 h post-dose (1.48 vs. 4.0) probably due to the oral route of administration (as opposed to the ip route used before) leading to slower systemic absorption and distribution.

Leishmania amazonensis = test: Antimicrobial activity against Leishmania amazonensis; type: cell-based; settings: Table 1, Leishmania amazonensis
[4] = Metabolic stability in mouse liver microsomes; type: in vitro ADME
Experimental: (§1) Metabolic stability was evaluated using liver microsomes derived from mouse and human sources. Microsomal incubations were carried out according to a protocol described previously (Wang et al., Antimicrob. Agents Chemother. 54:2507 (2010)) with modifications. Briefly, substrate stock solutions were prepared in DMSO and DMSO content was kept at 0.5% (v/v) in final incubations. Incubation mixtures ([…]), liver microsomes (0.5 mg/mL) from mouse (pool of 1000, CD-1 male mouse) or human (pool of 50, mixed gender) (XenoTech LLC, Lenexa, Kans.) in a phosphate buffer (100 mM, pH 7.4) containing 3.3 mM MgCl2. After a 5-minute pre-equilibration period at 37° C., reactions (in triplicate) were initiated by adding the NADPH cofactor (1 mM). For NADPH-independent reactions, the cofactor was replaced with water. Aliquots (10 μl) of the reaction mixtures were removed at 0, 15, 30, and 60 minutes and individually mixed with 200 μL of ice-cold acetonitrile containing internal standard. The mixtures were vortex-mixed, and precipitated protein was removed by centrifugation at 2,250×g for 15 min. The supernatant fractions were dried using a 96-well microplate evaporator (Apricot Designs Inc., Covina, Calif.) under N2 at 50° C. and reconstituted with 100 μL 50% methanol containing 0.1% trifluoroacetic acid before UPLC-MS/MS analysis. In vitro half-life (t1/2) was obtained by analyzing the substrate concentration vs. incubation time curve using the one-phase exponential decay model (GraphPad Prism® 5.0, San Diego, Calif.).

T. b. brucei = test: In vitro antitrypanosomal activity against T. brucei (growth inhibition); type: cell-based, Trypanosoma brucei
In short: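 Dose-response EC50 against T. brucei parasites with 0.4% DMSO final, 48 h at 37 °C; parasite density quantified by ATP luminescence (CellTiter-Glo).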

[5] = Metabolic stability in human liver microsomes; type: in vitro ADME
Experimental: as §1

[6] = Table 14, mice, single ip dose 5 mg/kg, one hour post-dose, ± SEM of 3 mice (compound 3: 6 mice)
[7] = single oral dose 50 mg/kg, mice, 1 h
[8] = single oral dose 50 mg/kg, mice, 4 h
[9] = single oral dose 50 mg/kg, mice, 8 h
[10] = Table 12, after 60 min (where t1/2 > 60 min)

**Q.** Which “Mouse oral PK Tlast” value ([1]; Table 5) does the source give for `O=C(Nc1ccc2sc(-c3ccc(F)c(F)c3)nc2c1)N1CC[C@H](F)C1` [Compound 1, (S)-2-(3,4-Difluorophenyl)-5-(3-fluoro-N-pyrrolidylamido)benzothiazole] here?
**A.** 1440 min

**Q.** And the “Mouse oral PK Average AUC” value ([1]; Table 5, n = 3)?
**A.** 13217 ± 2156 (n = 3) min * μmol/L

**Q.** What about the “AUC0 min-∞” value ([1]; Table 13, mice, single 50 mg/kg oral gavage, vehicle Phosal 53 MCT(60%), PEG400 (30%), EtOH (10%)) of the same compound?
**A.** 14673 ± 2833 µM·min

**Q.** And the Cmax ([1]; Table 13, mice, single 50 mg/kg oral gavage, vehicle Phosal 53 MCT(60%), PEG400 (30%), EtOH (10%), read-out: Cmax)?
**A.** 18.6 ± 5.54 µM

**Q.** What about the Cmax ([1]; Table 13, mice, single 50 mg/kg oral gavage, vehicle Tween 80 (7%), EtOH (3%), DMSO (5%) in 0.9% NaCl, ± SEM of 3 mice, 50 mg/kg, read-out: Cmax) of the same compound?
**A.** 23.3 µM

**Q.** And the “AUC0 min-∞” value ([1]; Table 13, mice, single 50 mg/kg oral gavage, vehicle methylcellulose cP 400 (0.5%), Tween 80 (0.5%) in water)?
**A.** 6352 ± 469 µM·min

**Q.** What about the Cmax ([1]; Table 13, mice, single 50 mg/kg oral gavage, vehicle methylcellulose cP 400 (0.5%), Tween 80 (0.5%) in water, read-out: Cmax) of the same compound?
**A.** 8.54 ± 0.41 µM

**Q.** And the “percent of the Cmax remaining” value ([1]; mouse oral 50 mg/kg, 24 h time point)?
**A.** Less than 1%

**Q.** And the Cmax ([1]; mouse, plasma, po, 50 mg/kg, Table 5, n = 3, read-out: Mouse oral PK Average Cmax)?
**A.** 23.3 ± 5.22 µM

**Q.** And the Tmax ([1]; mouse, plasma, po, 50 mg/kg, Table 5, read-out: Mouse oral PK Tmax (converted))?
**A.** 2 h

**Q.** What about the Average brain/plasma ratio ([2]; Table 2, mouse, n = 3) of the same compound?
**A.** 4.0000 ± 0.624

**Q.** And the “Average [compound] brain” value ([2]; Table 8, groups of 3 mice (compound 3: ± SEM of 6 mice))?
**A.** 9.07 ± 6.88 µM

**Q.** What about the Brain/plasma ratio ([2]; Table 14, mice, single ip dose 5 mg/kg, one hour post-dose) of the same compound?
**A.** 4.0

**Q.** And the “[compound]Brain” value [2, 6]?
**A.** 9.07 ± 3.973 µM

**Q.** What about the “[compound]Plasma” value [2, 6] of the same compound?
**A.** 2.27 ± 0.888 µM

**Q.** And the concentration at 1 h ([2]; mouse, in vivo, 5 mg/kg, Table 2, mouse, n = 3, read-out: Average concentration in brain)?
**A.** 9.07 ± 6.88 µM

**Q.** What about the concentration at 1 h ([2]; mouse, in vivo, 5 mg/kg, Table 2, mouse, n = 3, read-out: Average concentration in plasma) of the same compound?
**A.** 2.27 ± 1.54 µM

**Q.** And the concentration at 60 min ([2]; mouse, in vivo, 5 mg/kg, Table 5 r15, mouse brain penetration (60 min), n = 3)?
**A.** 2.27 ± 1.54 µM

**Q.** And the concentration at 1 h ([2]; mouse, in vivo, 5 mg/kg, Table 8, groups of 3 mice (compound 3: ± SEM of 6 mice), read-out: Average [compound] plasma)?
**A.** 2.27 ± 1.54 µM

**Q.** And the EC50 (Trypanosoma cruzi; Table 1, Trypanosoma cruzi, read-out: EC50)?
**A.** 118 nM

**Q.** What about the EC90 (Trypanosoma cruzi; Table 1, Trypanosoma cruzi, read-out: EC90) of the same compound?
**A.** 178 nM

**Q.** What about the EC50 (Trypanosoma cruzi; Trypanosoma cruzi, Table 6, read-out: T. cruzi EC50) of the same compound?
**A.** 58.5 nM

**Q.** What about the EC50 (Trypanosoma cruzi; Trypanosoma cruzi, Table 10, read-out: T.cruzi EC50) of the same compound?
**A.** 118 nM

**Q.** What about the EC90 (Trypanosoma cruzi; Trypanosoma cruzi, Table 10, read-out: T.cruzi EC90) of the same compound?
**A.** 178 nM

**Q.** What about the “AUC0 min-∞, brain” value ([3]; mouse, in vivo, po, 50 mg/kg) of the same compound?
**A.** 43116.8 ± 2304 µM·min

**Q.** And the “AUC0 min-∞, plasma” value ([3]; mouse, in vivo, po, 50 mg/kg)?
**A.** 10798 ± 1975 µM·min

**Q.** And the “[compd]Brain” value ([3]; mouse, in vivo, po, 50 mg/kg)?
**A.** sub-micromolar

**Q.** And the Brain/plasma ratio [3, 7]?
**A.** 1.48

**Q.** And the “[compd]Brain” value [3, 7]?
**A.** 38.23 ± 13.51 µM

**Q.** What about the “[compd]Plasma” value [3, 7] of the same compound?
**A.** 27.14 ± 9.91 µM

**Q.** What about the Brain/plasma ratio [3, 8] of the same compound?
**A.** 4.43

**Q.** What about the “[compd]Brain” value [3, 8] of the same compound?
**A.** 45.2 ± 10.4 µM

**Q.** And the “[compd]Plasma” value [3, 8]?
**A.** 10.25 ± 2.21 µM

**Q.** What about the Brain/plasma ratio [3, 9] of the same compound?
**A.** 5.48

**Q.** What about the “[compd]Brain” value [3, 9] of the same compound?
**A.** 48.08 ± 2.47 µM

**Q.** And the “[compd]Plasma” value [3, 9]?
**A.** 8.97 ± 1.05 µM

**Q.** What about the EC50 (Leishmania amazonensis) of the same compound?
**A.** > 10000 nM

**Q.** And the “Microsome t1/2 (min) Mouse” value ([4]; Table 5)?
**A.** >60 min

**Q.** And the “Mouse microsomes, percentage of compound remaining” value [4, 10]?
**A.** 73%

**Q.** What about the half-life at 3 μM ([4]; male, CD-1, liver microsomes, pH 7.4, mouse microsomes, read-out: microsomal half-life) of the same compound?
**A.** > 1 h

**Q.** What about the half-life at 1.5 μM ([4]; male, CD-1, mouse, liver microsomes, pH 7.4, Table 12, 37° C., NADPH (1 mM), microsomes 0.5 mg/mL, test compounds 1.5 μM, read-out: Mouse microsomes t1/2) of the same compound?
**A.** > 1 h

**Q.** And the EC90 (T. b. brucei; Table 1, Trypanosoma brucei, read-out: EC90)?
**A.** 54.8 nM

**Q.** What about the EC50 (T. b. brucei; Trypanosoma brucei, Table 1, Trypanosoma brucei, read-out: EC50) of the same compound?
**A.** 34.8 nM

**Q.** What about the EC50 (T. b. brucei; Trypanosoma brucei, Table 6, read-out: T. brucei EC50) of the same compound?
**A.** 34.8 nM

**Q.** What about the EC50 (T. b. brucei; Trypanosoma brucei, Table 8, read-out: T. brucei EC50) of the same compound?
**A.** 34.8 nM

**Q.** What about the EC50 (T. b. brucei; Trypanosoma brucei, Table 11, read-out: T. b. brucei EC50) of the same compound?
**A.** 34.8 nM

**Q.** What about the EC50 (T. b. brucei; Trypanosoma brucei, Table 12, read-out: T. b. brucei EC50) of the same compound?
**A.** 34.8 nM

**Q.** And the EC50 (T. b. brucei; Trypanosoma brucei, Table 9, read-out: T. brucei EC50)?
**A.** 34.8 nM

**Q.** And the EC90 (T. b. brucei; Trypanosoma brucei, Table 9, read-out: T. brucei EC90)?
**A.** 54.8 nM

**Q.** What about the “Human microsomes, percentage of compound remaining” value [5, 10] of the same compound?
**A.** 53%

**Q.** And the half-life at 1.5 μM ([5]; both sexes, human, liver microsomes, pH 7.4, Table 12, 37° C., NADPH (1 mM), microsomes 0.5 mg/mL, test compounds 1.5 μM, read-out: Human microsomes t1/2)?
**A.** > 1 h

**Q.** And the half-life at 3 μM ([5]; both sexes, liver microsomes, pH 7.4, human microsomes, read-out: microsomal half-life)?
**A.** 1 h
